Columns and labels:
Plasmodium falciparum [1] = assay: Antiplasmodial activity against chloroquine-resistant Plasmodium falciparum INDO assessed as growth inhibition by SYBER green 1 dye based fluorescence assay; assay type: functional, organism-based
[2] = Cytotoxicity against human HEK293 cells assessed as cell viability measured for 24 hrs by MTT assay; assay type: cell-based
[3] = Selectivity index, ratio of CC50 for human HEK293 cells to IC50 for antiplasmodial activity against chloroquine-resistant Plasmodium falciparum INDO; assay type: toxicity; conditions: HEK293 cells versus Plasmodium falciparum INDO
A549 = assay: Anticancer activity against human A549 cells assessed as cell growth inhibition measured for 72 hrs by MTT assay; assay type: functional, cell-based; conditions: A549, 72 h
HepG2 = assay: Anticancer activity against human HepG2 cells assessed as cell growth inhibition measured for 72 hrs by MTT assay; assay type: functional, cell-based; conditions: HepG2, 72 h
BEAS-2B = assay: Anticancer activity against human BEAS-2B cells assessed as cell growth inhibition measured for 72 hrs by MTT assay; assay type: functional, cell-based
L02 = assay: Anticancer activity against human L02 cells assessed as cell growth inhibition measured for 72 hrs by MTT assay; assay type: functional, cell-based; conditions: L02, 72 h
[4] = Selectivity ratio of IC50 for anticancer activity against human BEAS-2B cells to IC50 for anticancer activity against human A549 cells; assay type: toxicity, cell-based; conditions: BEAS-2B cells versus A549 cells, read-out: Ratio IC50
[5] = Selectivity ratio of IC50 for anticancer activity against human L02 cells to IC50 for anticancer activity against human HepG2 cells; assay type: toxicity, cell-based; conditions: L02 cells versus HepG2 cells, read-out: Ratio IC50
Plasmodium falciparum [6] = assay: Antiplasmodial activity against artemisinin-resistant Plasmodium falciparum Cam 3.1 R539 assessed as growth inhibition by SYBER green 1 dye based fluorescence assay; assay type: functional, organism-based
Plasmodium falciparum [7] = assay: Resistance index, ratio of IC50 for antiplasmodial activity against artemisinin-resistant Plasmodium falciparum Cam 3.1 R539 to IC50 for antiplasmodial activity against chloroquine-resistant Plasmodium falciparum INDO; assay type: functional

Structure (SMILES) | IC50 (Plasmodium falciparum [1]) [µM] | CC50 at 24 h [2] [µM] | selectivity ratio [3] | IC50 (A549) [µM] | IC50 (HepG2) [µM] | IC50 (BEAS-2B) [µM] | IC50 (L02) [µM] | selectivity ratio [4] | selectivity ratio [5] | IC50 (Plasmodium falciparum [6]) [µM] | Ratio IC50 (Plasmodium falciparum [7])
C=C(c1ccc(Cl)c(Cl)c1Cl)C1COC2(OO1)C1CC3CC(C1)CC2C3 (configuration not stated) | 0.0421 | 75.8 | 1810 | 15 | 34.4 | 17.6 | 6.56 | 1.17 | 0.66 | – | –
C=C(c1ccc(Cl)c(Cl)c1)C1COC2(CCCC2)OO1 (configuration not stated) | > 0.1 | – | – | 4.68 | 62.6 | 50.9 | 8.45 | 10.9 | 0.13 | – | –
C=C(c1ccc(Cl)c(Cl)c1Cl)C1COC(C)(C)OO1 (configuration not stated) | > 0.1 | – | – | 52.1 | 27.3 | 10.2 | 18.1 | 0.19 | 0.14 | – | –
C=C(c1ccc(F)cc1F)C1COC2(CCCCC2)OO1 (configuration not stated) | > 0.1 | – | – | > 100 | 36 | 49.7 | 17.6 | 11.5 | – | – | –
C=C(c1ccc(Cl)c(Cl)c1)C1COC(C)(C)OO1 (configuration not stated) | > 0.1 | – | – | > 100 | > 100 | > 100 | 50.9 | – | – | – | –
CC(=O)O[C@H]1C(=O)[C@@]2(C)[C@H]([C@H](OC(=O)c3ccccc3)[C@]3(O)C[C@H](OC(=O)[C@H](O)[C@@H](NC(=O)c4ccccc4)c4ccccc4)C(C)=C1C3(C)C)[C@]1(OC(C)=O)CO[C@@H]1C[C@@H]2O [PACLITAXEL] | – | – | – | – | 0.19 | < 0.1 | < 0.1 | – | – | – | –
C=C(c1ccc(F)cc1F)C1COC2(OO1)C1CC3CC(C1)CC2C3 (configuration not stated) | > 0.1 | – | – | 4.43 | 65.6 | 46.4 | 10.9 | 10.5 | 0.16 | – | –
C=C(c1cc(Cl)cc(Cl)c1OCc1ccccc1)C1COC2(CCCCC2)OO1 (configuration not stated) | > 0.1 | – | – | > 100 | > 100 | > 100 | > 100 | – | – | – | –
C=C(c1ccc(F)cc1F)C1COC(C)(C)OO1 (configuration not stated) | > 0.1 | – | – | > 100 | > 100 | > 100 | > 100 | – | – | – | –
C=C(c1ccc(OC)c(F)c1)C1COC2(CCCCC2)OO1 (configuration not stated) | > 0.1 | – | – | 6.53 | 13.1 | 37.7 | 15.4 | 5.77 | 1.17 | – | –
C=C(c1cc(Cl)cc(Cl)c1OCc1ccccc1)C1COC(C)(C)OO1 (configuration not stated) | 0.04 | 31.6 | 811 | 58.4 | 39.5 | 25.5 | 64.1 | 3.16 | 4.78 | 0.0173 | 0.44
C=C(c1ccc(Cl)cc1Cl)C1COC(C)(C)OO1 (configuration not stated) | > 0.1 | – | – | 92.6 | 90.5 | 68.6 | 37.7 | 0.74 | 0.16 | – | –
C=C(c1ccc(F)c(F)c1)C1COC2(CCCCC2)OO1 (configuration not stated) | > 0.1 | – | – | 7.88 | 28.6 | 61.2 | 16.5 | 1.26 | 0.22 | – | –
C=C(c1ccc(F)c(F)c1)C1COC(C)(C)OO1 (configuration not stated) | > 0.1 | – | – | > 100 | > 100 | > 100 | > 100 | – | – | – | –
C=C(c1ccc(F)c(F)c1)C1COC2(CCCC2)OO1 (configuration not stated) | 0.0266 | 23.3 | 895 | 11.7 | 38.6 | 73.6 | 8.84 | 7.76 | 0.36 | 0.196 | 7.36
C=C(c1ccc(Cl)c(Cl)c1)C1COC2(CCCCC2)OO1 (configuration not stated) | > 0.1 | – | – | 12.8 | 83.5 | 39.4 | 83.5 | 3.07 | 2.37 | – | –
C=C(c1cc(Cl)cc(Cl)c1OCc1ccccc1)C1COC2(OO1)C1CC3CC(C1)CC2C3 (configuration not stated) | 0.0224 | 60.9 | 2770 | 31.6 | > 100 | > 100 | > 100 | – | 1.62 | 0.043 | 1.93
C=C(c1ccc(F)cc1F)C1COC2(CCCC2)OO1 (configuration not stated) | > 0.1 | – | – | 5.09 | 15.4 | 62.6 | 17.6 | 12.3 | 1.14 | – | –
C=C(c1ccc(OC)c(F)c1)C1COC2(CCCC2)OO1 (configuration not stated) | 0.0111 | 33 | 3000 | 9.7 | 29.3 | 55.8 | 18.5 | 5.75 | 0.63 | 0.0864 | 7.8
C=C(c1cc(Cl)cc(Cl)c1OCc1ccccc1)C1COC2(CCCC2)OO1 (configuration not stated) | 0.0316 | 2.26 | 72.9 | 2.07 | 13.7 | 28.6 | 65.6 | 0.43 | 0.19 | – | –
C=C(c1ccc(Cl)c(Cl)c1)C1COC2(OO1)C1CC3CC(C1)CC2C3 (configuration not stated) | 0.0224 | 13.2 | 599 | 2.93 | 34.3 | 26.7 | 3.36 | 9.11 | 0.5 | 0.05 | 2.24
C=C(c1ccc(Cl)c(Cl)c1Cl)C1COC2(CCCCC2)OO1 (configuration not stated) | > 0.1 | – | – | 1.37 | 9.02 | 10.3 | 1.22 | 7.51 | 0.72 | – | –
C=C(c1ccc(F)c(F)c1)C1COC2(OO1)C1CC3CC(C1)CC2C3 (configuration not stated) | 0.0123 | 12.6 | 1050 | 4.97 | 26.1 | 57.1 | 9.48 | 6.29 | 0.48 | 0.0414 | 3.39
C=C(c1ccc(Cl)cc1Cl)C1COC2(OO1)C1CC3CC(C1)CC2C3 (configuration not stated) | 0.0154 | 14.8 | 989 | 9.92 | 17.2 | 10.2 | 12.5 | 1.02 | 0.41 | 0.0462 | 2.99
C=C(c1ccc(OC)c(F)c1)C1COC(C)(C)OO1 (configuration not stated) | > 0.1 | – | – | 100 | > 100 | 68.7 | > 100 | – | 0.37 | – | –
